Patent US20230293407A1, “Compositions Comprising (Bio)-Alkanediols with Antimicrobials for Product Protection” (Symrise AG, priority 2020, published 2023)

Assays:
Assay in all cases: preservation efficacy test (PET), European Pharmacopoeia 5.1.3
Assay type in all cases: cell-based
Escherichia coli = conditions: for count at 2 days / count at 7 days / count at 14 days / count at 28 days: EC, use concentration in label
Candida albicans = conditions: for count at 2 days / count at 7 days / count at 14 days / count at 28 days: CA, use concentration in label
Pseudomonas aeruginosa = conditions: for count at 2 days / count at 7 days / count at 14 days / count at 28 days: PA, use concentration in label
Aspergillus brasiliensis = conditions: for count at 2 days / count at 7 days / count at 14 days / count at 28 days: AB, use concentration in label; for count at 28 days / AB germ count, 28 days: 28 days after inoculation
Staphylococcus aureus = conditions: for count at 2 days / count at 7 days / count at 14 days / count at 28 days: SA, use concentration in label; for count at 2 days: 2 days after inoculation
[1] = 2 days after inoculation, substance at given % in test formulation
[2] = 7 days after inoculation, substance at given % in test formulation
[3] = 14 days after inoculation, substance at given % in test formulation
[4] = 28 days after inoculation, substance at given % in test formulation
[5] = 2 days after inoculation, o/w emulsion (Table 53)
[6] = 7 days after inoculation, o/w emulsion (Table 53)
[7] = 7 days after inoculation, substance at given % in test formulation, listed as 0.1% 4-Hydroxyacetophenone
[8] = 14 days after inoculation, o/w emulsion (Table 53)
[9] = 14 days after inoculation, substance at given % in test formulation, listed as 0.1% 4-Hydroxyacetophenone
[10] = 28 days after inoculation, o/w emulsion (Table 53)

Q: What does the source list for CC(O)C(=O)[O-].[Na+] (centres unmarked) [0.8% sodium lactate (50%)]?
A: count at 2 days (Escherichia coli; 2 days after inoculation): 440.000; count at 7 days (Escherichia coli; 7 days after inoculation): 210.000; count at 14 days (Escherichia coli; 14 days after inoculation): 210.000; count at 28 days (Escherichia coli; 28 days after inoculation): 850; count at 2 days (Candida albicans; 2 days after inoculation): 930.000; count at 7 days (Candida albicans; 7 days after inoculation): 800.000; count at 14 days (Candida albicans; 14 days after inoculation): 890.000; count at 28 days (Candida albicans; 28 days after inoculation): 260.000; count at 2 days (Pseudomonas aeruginosa; 2 days after inoculation): 1; count at 7 days (Pseudomonas aeruginosa; 7 days after inoculation): 1; count at 14 days (Pseudomonas aeruginosa; 14 days after inoculation): 1; count at 28 days (Pseudomonas aeruginosa; 28 days after inoculation): 1; count at 2 days (Aspergillus brasiliensis; 2 days after inoculation): 910.000; count at 7 days (Aspergillus brasiliensis; 7 days after inoculation): 730.000; count at 14 days (Aspergillus brasiliensis; 14 days after inoculation): 440.000; count at 28 days (Aspergillus brasiliensis): 190.000; count at 2 days (Staphylococcus aureus): 190.000; count at 7 days (Staphylococcus aureus; 7 days after inoculation): 150.000; count at 14 days (Staphylococcus aureus; 14 days after inoculation): 170.000; count at 28 days (Staphylococcus aureus; 28 days after inoculation): 18.000

Q: How did the “count at 2 days” value (Escherichia coli; 2 days after inoculation) turn out when O=P(O)(O)O[C@H]1[C@H](OP(=O)(O)O)[C@@H](OP(=O)(O)O)[C@H](OP(=O)(O)O)[C@@H](OP(=O)(O)O)[C@H]1OP(=O)(O)O [0.4% phytic acid] was run?
A: 1

Q: And the “count at 7 days” value (Escherichia coli; 7 days after inoculation)?
A: 1

Q: And the “count at 14 days” value (Escherichia coli; 14 days after inoculation)?
A: 1

Q: And the “count at 28 days” value (Escherichia coli; 28 days after inoculation)?
A: 1

Q: What about the “count at 2 days” value (Candida albicans; 2 days after inoculation) of the same compound?
A: 640.000

Q: What about the “count at 7 days” value (Candida albicans; 7 days after inoculation) of the same compound?
A: 550.000

Q: What about the “count at 14 days” value (Candida albicans; 14 days after inoculation) of the same compound?
A: 570.000

Q: And the “count at 28 days” value (Candida albicans; 28 days after inoculation)?
A: 520.000

Q: What about the “count at 2 days” value (Pseudomonas aeruginosa; 2 days after inoculation) of the same compound?
A: 1

Q: And the “count at 7 days” value (Pseudomonas aeruginosa; 7 days after inoculation)?
A: 1

Q: And the “count at 14 days” value (Pseudomonas aeruginosa; 14 days after inoculation)?
A: 1

Q: And the “count at 28 days” value (Pseudomonas aeruginosa; 28 days after inoculation)?
A: 1

Q: What about the “count at 2 days” value (Aspergillus brasiliensis; 2 days after inoculation) of the same compound?
A: 510.000

Q: What about the “count at 7 days” value (Aspergillus brasiliensis; 7 days after inoculation) of the same compound?
A: 290.000

Q: And the “count at 14 days” value (Aspergillus brasiliensis; 14 days after inoculation)?
A: 180.000

Q: And the “count at 28 days” value (Aspergillus brasiliensis)?
A: 150.000

Q: And the “count at 2 days” value (Staphylococcus aureus)?
A: 1

Q: And the “count at 7 days” value (Staphylococcus aureus; 7 days after inoculation)?
A: 1

Q: What about the “count at 14 days” value (Staphylococcus aureus; 14 days after inoculation) of the same compound?
A: 1

Q: What about the “count at 28 days” value (Staphylococcus aureus; 28 days after inoculation) of the same compound?
A: 1

Q: With COC(=O)c1ccc(O)cc1 [0.1% Methylparaben] as the compound, how does the “EC germ count, 2 days” value (Escherichia coli; [1]) read?
A: 680.000

Q: What about the “EC germ count, 7 days” value (Escherichia coli; [2]) of the same compound?
A: 18.000

Q: What about the “EC germ count, 14 days” value (Escherichia coli; [3]) of the same compound?
A: 45

Q: What about the “EC germ count, 28 days” value (Escherichia coli; [4]) of the same compound?
A: 1

Q: What about the “CA germ count, 2 days” value (Candida albicans; [1]) of the same compound?
A: 100.000

Q: What about the “CA germ count, 7 days” value (Candida albicans; [2]) of the same compound?
A: 210.000

Q: And the “CA germ count, 14 days” value (Candida albicans; [3])?
A: 85.000

Q: And the “CA germ count, 28 days” value (Candida albicans; [4])?
A: 11.000

Q: What about the “PA germ count, 2 days” value (Pseudomonas aeruginosa; [1]) of the same compound?
A: 1

Q: What about the “PA germ count, 7 days” value (Pseudomonas aeruginosa; [2]) of the same compound?
A: 1

Q: What about the “PA germ count, 14 days” value (Pseudomonas aeruginosa; [3]) of the same compound?
A: 1

Q: What about the “PA germ count, 28 days” value (Pseudomonas aeruginosa; [4]) of the same compound?
A: 1

Q: What about the “AB germ count, 2 days” value (Aspergillus brasiliensis; [1]) of the same compound?
A: 300.000

Q: And the “AB germ count, 7 days” value (Aspergillus brasiliensis; [2])?
A: 690.000

Q: And the “AB germ count, 14 days” value (Aspergillus brasiliensis; [3])?
A: 300.000

Q: What about the “AB germ count, 28 days” value (Aspergillus brasiliensis; substance at given % in test formulation) of the same compound?
A: 240.000

Q: What about the “SA germ count, 7 days” value (Staphylococcus aureus; [2]) of the same compound?
A: 6.100

Q: What about the “SA germ count, 14 days” value (Staphylococcus aureus; [3]) of the same compound?
A: 140

Q: And the “SA germ count, 28 days” value (Staphylococcus aureus; [4])?
A: 1

Q: Which results are given for CC(=O)CCC(=O)O [0.4% Levulinic Acid]?
A: count at 2 days (Escherichia coli; 2 days after inoculation): 310; count at 7 days (Escherichia coli; 7 days after inoculation): 1; count at 14 days (Escherichia coli; 14 days after inoculation): 1; count at 28 days (Escherichia coli; 28 days after inoculation): 1; count at 2 days (Candida albicans; 2 days after inoculation): 240.000; count at 7 days (Candida albicans; 7 days after inoculation): 220.000; count at 14 days (Candida albicans; 14 days after inoculation): 240.000; count at 28 days (Candida albicans; 28 days after inoculation): 38.000; count at 2 days (Pseudomonas aeruginosa; 2 days after inoculation): 1; count at 7 days (Pseudomonas aeruginosa; 7 days after inoculation): 1; count at 14 days (Pseudomonas aeruginosa; 14 days after inoculation): 1; count at 28 days (Pseudomonas aeruginosa; 28 days after inoculation): 1; count at 2 days (Aspergillus brasiliensis; 2 days after inoculation): 710.000; count at 7 days (Aspergillus brasiliensis; 7 days after inoculation): 440.000; count at 14 days (Aspergillus brasiliensis; 14 days after inoculation): 390.000; count at 28 days (Aspergillus brasiliensis): 120.000; count at 2 days (Staphylococcus aureus): 45.000; count at 7 days (Staphylococcus aureus; 7 days after inoculation): 1; count at 14 days (Staphylococcus aureus; 14 days after inoculation): 1; count at 28 days (Staphylococcus aureus; 28 days after inoculation): 1

Q: What does the source list for Cc1ccc(C(C)C)c(O)c1 [0.1% Thymol]?
A: count at 2 days (Escherichia coli; 2 days after inoculation): 720.000; count at 7 days (Escherichia coli; 7 days after inoculation): 200.000; count at 14 days (Escherichia coli; 14 days after inoculation): 200; count at 28 days (Escherichia coli; 28 days after inoculation): 27; count at 2 days (Candida albicans; 2 days after inoculation): 69.000; count at 7 days (Candida albicans; 7 days after inoculation): 640.000; count at 14 days (Candida albicans; 14 days after inoculation): 180; count at 28 days (Candida albicans; 28 days after inoculation): 1.400; count at 2 days (Pseudomonas aeruginosa; 2 days after inoculation): 1; count at 7 days (Pseudomonas aeruginosa; 7 days after inoculation): 1; count at 14 days (Pseudomonas aeruginosa; 14 days after inoculation): 1; count at 28 days (Pseudomonas aeruginosa; 28 days after inoculation): 1; count at 2 days (Aspergillus brasiliensis; 2 days after inoculation): 580.000; count at 7 days (Aspergillus brasiliensis; 7 days after inoculation): 520.000; count at 14 days (Aspergillus brasiliensis; 14 days after inoculation): 290.000; count at 28 days (Aspergillus brasiliensis): 650.000; count at 7 days (Staphylococcus aureus; 7 days after inoculation): 23.000; count at 14 days (Staphylococcus aureus; 14 days after inoculation): 120; count at 28 days (Staphylococcus aureus; 28 days after inoculation): 1

Q: CC(=O)c1ccc(O)cc1 [4-Hydroxyacetophenone, reference compound] was tested. Which “germ count EC, 2 days” value (Escherichia coli; [5]) did it give?
A: 110.000

Q: And the “EC germ count, 2 days” value (Escherichia coli; 2 days after inoculation, substance at given % in test formulation, listed as 0.1% 4-Hydroxyacetophenone)?
A: 110.000

Q: And the “germ count EC, 7 days” value (Escherichia coli; [6])?
A: 290

Q: What about the “EC germ count, 7 days” value (Escherichia coli; [7]) of the same compound?
A: 36

Q: And the “germ count EC, 14 days” value (Escherichia coli; [8])?
A: 27

Q: What about the “EC germ count, 14 days” value (Escherichia coli; [9]) of the same compound?
A: 1

Q: What about the “germ count EC, 28 days” value (Escherichia coli; [10]) of the same compound?
A: 1

Q: And the “number of microorganisms, 2 days” value (Escherichia coli; PET, Escherichia coli (EC), 2 days after inoculation)?
A: 110.000

Q: What about the “number of microorganisms, 7 days” value (Escherichia coli; PET, Escherichia coli (EC), 7 days after inoculation) of the same compound?
A: 290

Q: And the “number of microorganisms, 14 days” value (Escherichia coli; PET, Escherichia coli (EC), 14 days after inoculation)?
A: 27

Q: What about the “number of microorganisms, 28 days” value (Escherichia coli; PET, Escherichia coli (EC), 28 days after inoculation) of the same compound?
A: 1

Q: What about the “germ count CA, 7 days” value (Candida albicans; [6]) of the same compound?
A: 170.000

Q: What about the “CA germ count, 7 days” value (Candida albicans; [7]) of the same compound?
A: 310.000

Q: What about the “germ count CA, 14 days” value (Candida albicans; [8]) of the same compound?
A: 130.000

Q: And the “CA germ count, 14 days” value (Candida albicans; [9])?
A: 190.000

Q: What about the “germ count CA, 28 days” value (Candida albicans; [10]) of the same compound?
A: 55.000

Q: And the “CA germ count, 28 days” value (Candida albicans; 28 days after inoculation, substance at given % in test formulation, listed as 0.1% 4-Hydroxyacetophenone)?
A: 100.000

Q: And the “number of microorganisms, 7 days” value (Candida albicans; PET, Candida albicans (CA), 7 days after inoculation)?
A: 170.000

Q: What about the “number of microorganisms, 14 days” value (Candida albicans; PET, Candida albicans (CA), 14 days after inoculation) of the same compound?
A: 130.000

Q: What about the “number of microorganisms, 28 days” value (Candida albicans; PET, Candida albicans (CA), 28 days after inoculation) of the same compound?
A: 55.000

Q: What about the “germ count PA, 2 days” value (Pseudomonas aeruginosa; [5]) of the same compound?
A: 1

Q: What about the “germ count PA, 7 days” value (Pseudomonas aeruginosa; [6]) of the same compound?
A: 1

Q: And the “germ count PA, 14 days” value (Pseudomonas aeruginosa; [8])?
A: 1

Q: And the “germ count PA, 28 days” value (Pseudomonas aeruginosa; [10])?
A: 1

Q: What about the “number of microorganisms, 2 days” value (Pseudomonas aeruginosa; PET, Pseudomonas aeruginosa (PA), 2 days after inoculation) of the same compound?
A: 1

Q: And the “number of microorganisms, 7 days” value (Pseudomonas aeruginosa; PET, Pseudomonas aeruginosa (PA), 7 days after inoculation)?
A: 1

Q: And the “number of microorganisms, 14 days” value (Pseudomonas aeruginosa; PET, Pseudomonas aeruginosa (PA), 14 days after inoculation)?
A: 1

Q: What about the “number of microorganisms, 28 days” value (Pseudomonas aeruginosa; PET, Pseudomonas aeruginosa (PA), 28 days after inoculation) of the same compound?
A: 1

Q: And the “AB germ count, 28 days” value (Aspergillus brasiliensis; substance at given % in test formulation, listed as 0.1% 4-Hydroxyacetophenone)?
A: 910.000

Q: What about the “germ count SA, 7 days” value (Staphylococcus aureus; [6]) of the same compound?
A: 24.000

Q: And the “SA germ count, 7 days” value (Staphylococcus aureus; [7])?
A: 78.000

Q: And the “germ count SA, 14 days” value (Staphylococcus aureus; [8])?
A: 1

Q: What about the “germ count SA, 28 days” value (Staphylococcus aureus; [10]) of the same compound?
A: 1

Q: And the “number of microorganisms, 7 days” value (Staphylococcus aureus; PET, Staphylococcus aureus (SA), 7 days after inoculation)?
A: 24.000

Q: What about the “number of microorganisms, 14 days” value (Staphylococcus aureus; PET, Staphylococcus aureus (SA), 14 days after inoculation) of the same compound?
A: 1

Q: And the “number of microorganisms, 28 days” value (Staphylococcus aureus; PET, Staphylococcus aureus (SA), 28 days after inoculation)?
A: 1
